Earlier results in patent EP0307115A1, “Phenol esters” (IMPERIAL CHEMICAL INDUSTRIES PLC, priority 1987, dated 1989).

Details: dosed orally in man

O=C(NCCNCC(O)COc1ccc(O)cc1)N1CCOCC1 (racemic) [xamoterol, N-(2-[(RS)-2-hydroxy-3-(4-hydroxyphenoxy)-propylamino]ethyl)morpholine-4-carboxamide]
absorbed from the gastrointestinal tract, extent of the administered dose: 9-10%
